This note sets out measurements from ChEMBL document CHEMBL1150901, “Enhancement of NO production in activated macrophages in vivo by an antimalarial crude drug, Dichroa febrifuga” (J Nat Prod, 1998).

Molecules are shown by their SMILES. Activity calls are given as the source filed them. No cut-off for these calls is given here.

Data set [1] concerns Macrophage. The data set is described as follows: […] of LPS-induced NO production in BCG-treated ICR mouse macrophages at 1 mg/kg/day, po administered for 3 days before BCG immunization measured after 24 hrs of LPS challenge by Griess reagent method. Type of data set: functional. Details: scale not given: the % may be the effect or the level left.
The subject of data set [2] is Macrophage. The data set is described as follows: Activation of NO production in BCG-treated ICR mouse macrophages at 1 mg/kg/day, po administered for 3 days before BCG immunization measured after 72 hrs of LPS challenge by Griess reagent method. The data set is classed as functional, organism-based. A general note: Nitrite, measured by Griess reagent, commonly stands in for NO production.

A short description of data set [3]: Activation of LPS-induced NO production in BCG-treated ICR mouse macrophages at 1 mg/kg/day, po administered for 3 days before BCG immunization measured after 72 hrs of LPS challenge by Griess reagent method. The data set is classed as functional, organism-based. The conditions noted are these: Macrophage.
The test system of data set [4] is Mus musculus. Description: Antiinflammatory activity against po dosed ICR mouse assessed as number of peritoneal exudate cells. The data set is classed as functional.
Data set [5] concerns Macrophage. The data set is described as follows: Increase in LPS-induced NO production in ICR mouse at 1 mg/kg/day, po 0 to 2 days administered before BCG immunization measured after 24 hrs of LPS challenge by Griess reagent method. Type of data set: functional, organism-based.
Data set [6] can be described thus: Cytotoxicity against LPS-stimulated ICR mouse macrophages assessed as cell viability at 1 mg/kg/day after 72 hrs of LPS challenge by MTT assay. Type of data set: organism-based, Macrophage. The note with it: read-out: Activity.
Data set [7] relates to Macrophage. The data set is described as follows: Increase in LPS-induced NO production in ICR mouse at 1 mg/kg/day, po 0 to 2 days administered after BCG immunization measured after 24 hrs of LPS challenge by Griess reagent method. Type of data set: functional, organism-based.
The subject of data set [8] is Mus musculus. The data set is described as follows: Toxicity in ICR mouse assessed as occurrence of diarrhea at 5 mg/kg/day, po. The data set is classed as organism-based. The conditions noted are these: in vivo. On the set-up: route oral.
A short description of data set [9]: Activation of LPS-induced NO production in BCG-treated ICR mouse macrophages at 5 mg/kg/day, po administered for 3 days before BCG immunization measured after 24 hrs of LPS challenge by Griess reagent method. Type of data set: functional, organism-based. The conditions noted are these: Macrophage.
Data set [10] can be described thus: Cytotoxicity against ICR mouse macrophages assessed as cell viability at 1 mg/kg/day after 72 hrs by MTT assay. The data set is classed as organism-based, Macrophage. The note with it: read-out: Activity.
Data set [11] in a line: Activation of LPS-induced NO production in BCG-treated ICR mouse macrophages at 50 to 1000 mg/kg/day, po administered for 3 days before BCG immunization measured after 24 hrs of LPS challenge by Griess reagent method. The conditions noted are these: Macrophage. The data set is classed as functional, organism-based.

In the data set on Macrophage [1], `C[C@@H]1CC[C@H]2[C@@H](C)C(=O)O[C@@H]3O[C@@]4(C)CC[C@@H]1[C@]32OO4` [ARTEMISININ] yielded an Activity of 23%.

Take `O=C(C[C@@H]1NCCC[C@H]1O)Cn1cnc2ccccc2c1=O` [FEBRIFUGINE]: the outcome (in the data set on Macrophage [2]; in [9]) was inactive. For the same molecule, the result (in data set [3]; with Macrophage [5]; with Macrophage [7]) was Active. Also, the Activity in the data set on Mus musculus [4] is 378000000; in the data set on Mus musculus [8], “Not Active”; in [11] it was “Dose-dependent effect”. Besides, the viability at 72 h in data set [6] was 10%; in [10] it was more than 90%.
